Results as given in ChEMBL document CHEMBL1129168, “Synthesis and antiviral activity of new phosphonobutoxypurines” (Bioorg Med Chem Lett, 1996).
≈ marks a conversion by molar mass, not a printed value.

Tests used:
Human alphaherpesvirus 1 = experiment: Compound was tested in vitro for antiviral activity against Herpes simplex virus-Type 1 in SC 16 cells.; type: functional, organism-based
Human alphaherpesvirus 2 = experiment: Compound was tested in vitro for antiviral activity against Herpes simplex virus-Type 2 in MS cells.; type: functional, organism-based; conditions: Human alphaherpesvirus 2, MS
MRC5 = experiment: Compound was tested in vitro for antiviral activity against Herpes viruses(HSV-2, VZV) in human fibroblast (MRC-5) cells.; type: functional, cell-based
Human alphaherpesvirus 3 = experiment: Compound was tested in vitro for antiviral activity against Varicella zoster virus (VZV) in ellen cells.; type: functional, organism-based
D34 = experiment: Compound was tested in vitro for antiviral activity against Human immunodeficiency virus type-1 in D34 cells.; type: functional, cell-based
Homo sapiens = species on record: Homo sapiens; experiment: Compound was tested for its activity against HIV replication in human peripheral blood lymphocytes (PBLs) using MTT-based cytotoxicity assay.; type: functional, organism-based

Row | Structure (SMILES) | IC50 (Human alphaherpesvirus 1) [mg/L] | IC50 (Human alphaherpesvirus 2) [mg/L] | IC50 (Human alphaherpesvirus 3) [mg/L] | IC50 (D34) [µM] | IC50 (MRC5) [mg/L] | IC50 (Homo sapiens) [µM]
1 | Nc1ncnc2c1ncn2OCCCCP(=O)(O)O | > 100 | > 100 | > 100 | > 100 | 58 (≈ 202 µM) | –
2 | Nc1nc(O)c2ncn(OCC(CO)CCP(=O)(O)O)c2n1 (stereo unspecified) | > 100 | > 100 | 5 (≈ 15 µM) | > 100 | 8.8 (≈ 26.4 µM) | –
3 | Nc1nc(N)c2ncn(OCC(CO)CCP(=O)(O)O)c2n1 (stereo unspecified) | > 100 | > 100 | 17 (≈ 51.2 µM) | – | 78 (≈ 235 µM) | –
4 | Nc1ncnc2c1ncn2OCC(CO)CCP(=O)(O)O (stereo unspecified) | > 100 | > 100 | > 100 | > 100 | > 100 | –

Continued, in another order:

Row | IC50 (Human alphaherpesvirus 1) [mg/L] | IC50 (Human alphaherpesvirus 2) [mg/L] | IC50 (Human alphaherpesvirus 3) [mg/L] | IC50 (D34) [µM] | Structure (SMILES) | IC50 (MRC5) [mg/L] | IC50 (Homo sapiens) [µM]
5 | > 100 | 23 (≈ 75.9 µM) | 6 (≈ 19.8 µM) | 0.01 | Nc1nc(O)c2ncn(OCCCCP(=O)(O)O)c2n1 | 1.6 (≈ 5.28 µM) | > 100
6 | > 100 | > 100 | 17 (≈ 56.2 µM) | 1 | Nc1nc(N)c2ncn(OCCCCP(=O)(O)O)c2n1 | 26 (≈ 86 µM) | > 100
